In brackets after ≈: the same amount, converted by molar mass.
How the values were obtained:
[1] = tested on: Escherichia coli K-12 ML 1410; experiment: MIC, serial dilution on nutrient agar; assay type: cell-based; details: K12ML1410, 18 h
Providencia Pv 16 = experiment: MIC, serial dilution on nutrient agar; assay type: cell-based; details: PV16, 18 h
Salmonella typhi F63 = experiment: MIC, serial dilution on nutrient agar; assay type: cell-based; details: Salmonella enterica, 18 h
Escherichia coli K-12 R5 = experiment: microbe, parasite or virus in culture; assay type: cell-based; details: K12R5, 18 h
[2] = tested on: Pseudomonas aeruginosa H9; experiment: MIC, serial dilution on nutrient agar; assay type: cell-based; details: H9, 18 h
[3] = tested on: Pseudomonas aeruginosa K-Ps102; experiment: MIC, serial dilution on nutrient agar; assay type: cell-based; details: KPS102, nutrient agar, 37° C., 18 hours, read-out: MIC
oto-toxicity = details: compounds of this invention
[4] = tested on: Pseudomonas aeruginosa No. 12; experiment: MIC, serial dilution on nutrient agar; assay type: cell-based; details: NO.12, nutrient agar, 37° C., 18 hours, read-out: MIC
Escherichia coli NIHJ = experiment: MIC, serial dilution on nutrient agar; assay type: cell-based; details: 18 h
[5] = tested on: Shigella flexneri 4b JS11811; experiment: MIC, serial dilution on nutrient agar; assay type: cell-based; details: 4BJS11811, 37° C., 18 hours
Experimental: (§1) The minimum inhibitory concentrations (mcg/ml) of 6"-deoxydibekacin (abbreviated as 6"-DDKB), 4",6"-dideoxydibekacin (abbreviated as 4",6"-DDKB), 1-N-(L-4-amino-2-hydroxybutyryl)-6"-deoxydibekacin (abbreviated as AHB-6"-DDKB) and 1-N-(L-4-amino-2-hydroxybutyryl)-4",6"-dideoxydibekacin (abbreviated as AHB-4",6"-DDKB) of this invention against various microorganisms were determined according to serial dilution method on a nutrient agar medium at 37° C., the estimation being made after 18 hours incubation. For comparison purpose, the minimum inhibitory concentrations of dibekacin (abbreviated as DKB) were also determined in the same manner as stated above.

Proteus vulgaris OX19 = experiment: MIC, serial dilution on nutrient agar; assay type: cell-based; details: 37° C., 18 hours
Experimental: as §1

[6] = tested on: Klebsiella pneumoniae PCI 602; experiment: MIC, serial dilution on nutrient agar; assay type: cell-based; details: PCI602, 37° C., 18 hours
Experimental: as §1

[7] = tested on: Pseudomonas aeruginosa GN315; experiment: MIC, serial dilution on nutrient agar; assay type: cell-based; details: 37° C., 18 hours
Experimental: as §1

[8] = tested on: Staphylococcus aureus 209P; experiment: MIC, serial dilution on nutrient agar; assay type: cell-based; details: 37° C., 18 hours
Experimental: as §1

[9] = tested on: Escherichia coli K-12 J5B 11-2; experiment: MIC, serial dilution on nutrient agar; assay type: cell-based; details: K12J5B112, 37° C., 18 hours
Experimental: as §1

[10] = tested on: Pseudomonas maltophilia GN907; experiment: MIC, serial dilution on nutrient agar; assay type: cell-based; details: Stenotrophomonas maltophilia, 37° C., 18 hours
Experimental: as §1

[11] = tested on: Pseudomonas aeruginosa 21-75; experiment: MIC, serial dilution on nutrient agar; assay type: cell-based; details: 2175, 37° C., 18 hours
Experimental: as §1

[12] = tested on: Escherichia coli K-12 ML 1630; experiment: MIC, serial dilution on nutrient agar; assay type: cell-based; details: K12ML1630, 37° C., 18 hours
Experimental: as §1

[13] = tested on: Escherichia coli K-12 C 600R/35; experiment: MIC, serial dilution on nutrient agar; assay type: cell-based; details: K12C600R/35, 37° C., 18 hours
Experimental: as §1

[14] = tested on: Escherichia coli K-12 ML 1629; experiment: MIC, serial dilution on nutrient agar; assay type: cell-based; details: K12ML1629, 37° C., 18 hours
Experimental: as §1

Serratia marcescens = experiment: MIC, serial dilution on nutrient agar; assay type: cell-based; details: 37° C., 18 hours
Experimental: as §1

Serratia SOU = experiment: MIC, serial dilution on nutrient agar; assay type: cell-based; details: 37° C., 18 hours
Experimental: as §1

Providencia 2991 = experiment: MIC, serial dilution on nutrient agar; assay type: cell-based; details: 37° C., 18 hours
Experimental: as §1

Serratia 4 = experiment: MIC, serial dilution on nutrient agar; assay type: cell-based; details: 37° C., 18 hours
Experimental: as §1

Shigella sonnei JS11746 = experiment: MIC, serial dilution on nutrient agar; assay type: cell-based; details: 37° C., 18 hours
Experimental: as §1

[15] = tested on: Escherichia coli K-12 LA 290 R64; experiment: MIC, serial dilution on nutrient agar; assay type: cell-based; details: K12LA290R64, 18 h
[16] = tested on: Bacillus cereus ATCC 10702; experiment: MIC, serial dilution on nutrient agar; assay type: cell-based; details: ATCC10702, nutrient agar, 37° C., 18 hours, read-out: MIC
Proteus rettgeri GN311 = experiment: MIC, serial dilution on nutrient agar; assay type: cell-based; details: Providencia rettgeri, GN311, 18 h
[17] = tested on: Pseudomonas aeruginosa TI-13; experiment: MIC, serial dilution on nutrient agar; assay type: cell-based; details: TI13, 18 h
Sarcina lutea PCI 1001 = experiment: MIC, serial dilution on nutrient agar; assay type: cell-based; details: Micrococcus luteus, PCI1001, 18 h
[18] = tested on: Pseudomonas aeruginosa A3; experiment: MIC, serial dilution on nutrient agar; assay type: cell-based; details: A3, 18 h
[19] = tested on: Staphylococcus aureus Smith; experiment: MIC, serial dilution on nutrient agar; assay type: cell-based; details: 37° C., 18 hours
[20] = tested on: Staphylococcus epidermidis 109; experiment: MIC, serial dilution on nutrient agar; assay type: cell-based; details: Staphylococcus epidermidis, 109, 18 h
[21] = tested on: Pseudomonas aeruginosa B-13; experiment: MIC, serial dilution on nutrient agar; assay type: cell-based; details: B13, 18 h
Bacillus anthracis = experiment: microbe, parasite or virus in culture; assay type: cell-based; details: 18 h
[22] = tested on: Mycrococcus flavus FDA 16; experiment: MIC, serial dilution on nutrient agar; assay type: cell-based; details: 18 h
[23] = tested on: Staphylococcus aureus APO1; experiment: MIC, serial dilution on nutrient agar; assay type: cell-based; details: APO1, 18 h
[24] = tested on: Pseudomonas aeruginosa H11; experiment: MIC, serial dilution on nutrient agar; assay type: cell-based; details: H11, 18 h
[25] = tested on: Pseudomonas aeruginosa PST1; experiment: MIC, serial dilution on nutrient agar; assay type: cell-based; details: PST1, 18 h
[26] = tested on: Bacillus subtilis PCI 219; experiment: MIC, serial dilution on nutrient agar; assay type: cell-based; details: PCI219, 37° C., 18 hours

C[C@@H]1C[C@H](N)[C@@H](O)[C@@H](O[C@@H]2[C@@H](O)[C@H](O[C@H]3O[C@H](CN)CC[C@H]3N)[C@@H](N)C[C@H]2N)O1 [4",6"-DDKB, 4",6"-dideoxydibekacin]
MIC [1]: 1.56 µg/mL (≈ 3.72 µM) | MIC (Providencia Pv 16): > 100 µg/mL | MIC (Salmonella typhi F63): 0.78 µg/mL (≈ 1.86 µM) | MIC (Escherichia coli K-12 R5): > 100 µg/mL | MIC [2]: 100 µg/mL (≈ 238 µM) | MIC [3]: 25 µg/mL (≈ 59.6 µM) | oto-toxicity (oto-toxicity): low oto-toxicity | MIC [4]: 12.5 µg/mL (≈ 29.8 µM) | MIC (Escherichia coli NIHJ): 1.56 µg/mL (≈ 3.72 µM) | MIC [5]: 3.13 µg/mL (≈ 7.46 µM) | MIC (Proteus vulgaris OX19): 0.78 µg/mL (≈ 1.86 µM) | MIC [6]: 0.78 µg/mL (≈ 1.86 µM) | MIC [7]: > 100 µg/mL | MIC [8]: 0.39 µg/mL (≈ 0.93 µM) | MIC [9]: 3.13 µg/mL (≈ 7.46 µM) | MIC [10]: > 100 µg/mL | MIC [11]: > 100 µg/mL | MIC [12]: 3.13 µg/mL (≈ 7.46 µM) | MIC [13]: 50 µg/mL (≈ 119 µM) | MIC [14]: 3.13 µg/mL (≈ 7.46 µM) | MIC (Serratia marcescens): 100 µg/mL (≈ 238 µM) | MIC (Serratia SOU): > 100 µg/mL | MIC (Providencia 2991): > 100 µg/mL | MIC (Serratia 4): 100 µg/mL (≈ 238 µM) | MIC (Shigella sonnei JS11746): 3.13 µg/mL (≈ 7.46 µM) | MIC [15]: 25 µg/mL (≈ 59.6 µM) | MIC [16]: 6.25 µg/mL (≈ 14.9 µM) | MIC (Proteus rettgeri GN311): 3.13 µg/mL (≈ 7.46 µM) | MIC [17]: 100 µg/mL (≈ 238 µM) | MIC (Sarcina lutea PCI 1001): 50 µg/mL (≈ 119 µM) | MIC [18]: 3.13 µg/mL (≈ 7.46 µM) | MIC [19]: < 0.2 µg/mL | MIC [20]: 3.13 µg/mL (≈ 7.46 µM) | MIC [21]: > 100 µg/mL | MIC (Bacillus anthracis): < 0.2 µg/mL | MIC [22]: 50 µg/mL (≈ 119 µM) | MIC [23]: 3.13 µg/mL (≈ 7.46 µM) | MIC [24]: 100 µg/mL (≈ 238 µM) | MIC [25]: > 100 µg/mL | MIC [26]: < 0.2 µg/mL

From patent US4332794A, “6"-Deoxydibekacin, 4",6"-dideoxydibekacin and 1-N-aminoacyl derivatives thereof, and the production of these new compounds” (Zaidan Hojin Biseibutsu Kagaku Kenkyu Kai, priority 1979, dated 1982)
